Laboratory results as given in patent US10123994B2, “Heterocyclic derivative having AMPK-activating activity” (SHIONOGI & CO., LTD., priority 2014, dated 2018).

Biological target: T1, Human AMPK α2β2γ1 (Homo sapiens, UniProt O43741+P54619+P54646)
T1 construct: The full length cDNAs of human AMPK β2 (NM_005399.3) and human AMPK α2 (NM_006252.3); The full length cDNAs of human AMPK β2 (NM_005399.3); the full length cDNA of human AMPK γ1 (NM_002733.3); 6xHis (N); made in house; host or cells: Escherichia coli BL21 CodonPlus (DE3)-RIL (AMPK); BL21 Star (DE3) (CaMKK2)
Experiment: Test Example 2: AMPK activator evaluation, mobility-shift kinase assay after CaMKK2 phosphorylation
Format: biochemical
Details: for EC150: compound concentration showing 150% relative to the control (100%); for Emax: maximum rate of increase in activity within the measurement range, control = 100%
Description: The full length cDNAs of human AMPK β2 (NM_005399.3) and human AMPK α2 (NM_006252.3) were inserted into the MCS1 and MCS2 of the pETDuet-1 vector to prepare a human AMPK β2 and human AMPK α2 (6× His tag at the 5′ terminus) expressing plasmid. The plasmid was cotransfected with an expression plasmid, in which the full length cDNA of human AMPK γ1 (NM_002733.3) had been inserted into pET28b(+), into BL21 CodonPlus (DE3)-RIL to obtain an expression strain. The expression strain was cultured in TB medium, followed by induction with 0.5 mM IPTG, and cultured at 25° C. for 3 hours and then harvested. After ultrasonication, supernatant was collected and applied to Histrap FF column (GE) and RESOUECE Q column (GE) to prepare 12.5 mg of purified sample containing three types of subunit from 1.8 L of broth.
An expression vector, in which the full length cDNA of human CAMKK β (NM_172226.1) had been inserted into pGEX-6P-3, was transfected into BL21 Star (DE3). The expression strain was cultured in TB medium, followed by induction with 0.5 mM IPTG, and cultured at 25° C. for 3 hours and then harvested. After ultrasonication, supernatant was collected and applied to GSTrap FF column (GE) to prepare 14 mg of GST-fused CAMKK β from 720 ml of broth.
Thus, phosphorylation treatment was carried out as pretreatment.
Human AMPK α2β2γ1 in an amount to give a conversion rate of approximately 10% by reaction for 2 hours, and CaMKK2 in an amount capable of sufficiently imparting activity to AMPK for one hour were mixed in a buffer solution consisting of a 50 mM HEPES-NaOH buffer solution (pH 7.0), 100 mM NaCl, 5 mM magnesium chloride, 0.1% bovine serum albumin, 0.2 mM sodium orthovanadate(V), 1 mM ethylene glycol-bis(2-aminoethyl ether)-N,N,N′,N′-tetraacetic acid (EGTA), 5 mM disodium β-glycerophosphate, 1 mM dithiothreitol and 0.2 mM ATP, and the obtained liquid was left to stand at 25° C. for 1 to 1.5 hours to sufficiently phosphorylate AMPK.
After that, to the enzyme liquid, which had been subjected to phosphorylation treatment, a compound dissolved in DMSO was added so as to have a 1% DMSO concentration. The obtained liquid was left to stand for 10 minutes.
To the liquid, a substrate solution consisting of a 50 mM HEPES-NaOH buffer solution (pH 7.0), 100 mM NaCl, 10 mM magnesium chloride, 0.1% bovine serum albumin, 0.2 mM sodium orthovanadate(V), 1 mM ethylene glycol-bis(2-aminoethyl ether)-N,N,N′,N′-tetraacetic acid (EGTA), 5 mM disodium β-glycerophosphate, 2 mM dithiothreitol, 0.4 mM ATP and 3 μM FL-Peptide 7 (manufactured by Caliper Life Sciences, Inc.) was added in equal amount (10 μl in total). The obtained liquid was allowed to react at 25° C. for 2 hours, and 10 μl of 20 mM EDTA was then added thereto to stop the reaction.
To detect phosphorylated fluorescent substrates, the reaction liquid was applied to a measuring device, LabChip EZ Reader II manufactured by Caliper Life Science, Inc., for detecting fluorescence by using differences in mobility due to differences in charge. The setting conditions for the device were pressure, −1.5 PSI; upstream voltage, −2250 V; downstream voltage, −400 V; post sample buffer sip time, 40 seconds; final delay, 120 seconds; and peak order, Product First.
A conversion rate was calculated from the peak heights of the resulting substrate and product. The conversion rate when not containing a compound was used as a control, and a concentration dependent curve was made by plotting the rate of increase in activity to the control at each concentration of a compound.

T1 sequence (P54646 whole entry): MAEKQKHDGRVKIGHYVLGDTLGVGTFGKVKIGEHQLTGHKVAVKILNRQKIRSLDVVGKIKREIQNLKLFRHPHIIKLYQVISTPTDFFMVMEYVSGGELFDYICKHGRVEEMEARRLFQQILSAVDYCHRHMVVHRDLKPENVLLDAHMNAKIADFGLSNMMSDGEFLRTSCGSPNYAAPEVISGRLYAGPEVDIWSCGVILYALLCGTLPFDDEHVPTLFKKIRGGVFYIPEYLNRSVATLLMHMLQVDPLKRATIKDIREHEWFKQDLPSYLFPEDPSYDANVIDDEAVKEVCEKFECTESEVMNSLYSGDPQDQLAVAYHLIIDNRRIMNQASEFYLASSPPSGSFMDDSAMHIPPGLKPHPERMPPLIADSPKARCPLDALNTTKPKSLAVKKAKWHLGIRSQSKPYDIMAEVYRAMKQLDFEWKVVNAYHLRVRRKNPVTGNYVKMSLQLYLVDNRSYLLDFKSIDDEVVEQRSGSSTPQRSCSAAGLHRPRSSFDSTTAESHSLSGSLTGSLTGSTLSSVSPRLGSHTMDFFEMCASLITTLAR
T1 sequence (O43741 whole entry): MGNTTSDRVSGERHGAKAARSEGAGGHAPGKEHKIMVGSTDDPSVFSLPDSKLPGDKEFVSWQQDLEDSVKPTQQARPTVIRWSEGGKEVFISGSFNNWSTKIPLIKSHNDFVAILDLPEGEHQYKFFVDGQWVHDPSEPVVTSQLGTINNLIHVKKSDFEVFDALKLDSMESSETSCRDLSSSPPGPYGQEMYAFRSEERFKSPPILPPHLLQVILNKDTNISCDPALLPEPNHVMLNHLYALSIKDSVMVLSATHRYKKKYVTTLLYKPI
T1 sequence (P54619 whole entry): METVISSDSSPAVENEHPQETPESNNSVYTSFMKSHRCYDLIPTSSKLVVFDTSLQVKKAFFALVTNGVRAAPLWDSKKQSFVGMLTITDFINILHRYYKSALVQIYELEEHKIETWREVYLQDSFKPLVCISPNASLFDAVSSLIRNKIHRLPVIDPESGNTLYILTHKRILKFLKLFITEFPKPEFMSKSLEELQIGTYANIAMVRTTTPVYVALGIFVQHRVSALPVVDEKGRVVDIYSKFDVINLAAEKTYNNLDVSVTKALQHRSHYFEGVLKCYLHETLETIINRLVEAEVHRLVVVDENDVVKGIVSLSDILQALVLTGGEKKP

`O[C@@H]1CO[C@H]2[C@@H]1OC[C@H]2Oc1nc2nc(NCc3c(F)cc(-c4cnn(CCN5CCOCC5)c4)cc3F)c(Cl)cc2[nH]1` [Compound I-2-228] gave an EC150 of 8.5 nM and an Emax of 528%.
`CC(C)(O)CCc1cc(F)c(CNc2nc3nc(O[C@@H]4CO[C@H]5[C@@H]4OC[C@H]5O)[nH]c3cc2Cl)c(F)c1` [Compound I-2-233] gave an EC150 of 9.3 nM and an Emax of 507%.
`COC/C=C/c1cc(F)c2c(c1)CCC2Nc1nc2nc(O[C@@H]3CO[C@H]4[C@@H]3OC[C@H]4O)[nH]c2cc1Cl` (stereo partly shown) [Compound I-2-238] was tested, and the EC150 was 4.1 nM and the Emax was 553%.
Molecule `Cn1cc(-c2cc(F)c3c(c2)CCC3Nc2nc3nc(O[C@@H]4CO[C@H]5[C@@H]4OC[C@H]5O)[nH]c3cc2Cl)cn1` (stereo partly shown) [Compound I-2-239] has an EC150 of 5.6 nM and an Emax of 535%.
Work on `O[C@@H]1CO[C@H]2[C@@H]1OC[C@H]2Oc1nc2nc(/C=C/c3ccc(F)cc3F)c(Cl)cc2[nH]1` [Compound I-2-244] yielded an EC150 of 92 nM and an Emax of 517%.
